Calls of active or inactive are those of the source. No cut-off for these calls is given here.
Experiments:
Homo sapiens = organism: Homo sapiens; assay: Inhibition of N-terminal/C-terminal His-tagged human recombinant MLL1 (3745 to 3969 residues)/WDR5 (22 to 334 residues)/RbBP5 (1 to 538 residues)/ASH2L (2 to 534 residues)/DPY-30 (1 to 99 residues) complex at higher concentration using oligo nucleosomes as substrate and 3H-SAM as cosubstrate incubated for 60 mins by scintillation counter analysis
[1] = target: T1, Protein arginine N-methyltransferase 7 (Homo sapiens) (UniProt Q9NVM4); assay: Inhibition of PRMT7 catalysed methylation of HNRNPA1 at R194 residue in HEK293T cells assessed as increase in ratio of abundance of unmethylated over methylated peptides at 10 to 50 uM measured after 24 to 48 hrs by UHPLC- MS/MS analysis; type: cell-based; conditions: dose 10-50 µM, time 24-48 hrs
T1 sequence (whole entry): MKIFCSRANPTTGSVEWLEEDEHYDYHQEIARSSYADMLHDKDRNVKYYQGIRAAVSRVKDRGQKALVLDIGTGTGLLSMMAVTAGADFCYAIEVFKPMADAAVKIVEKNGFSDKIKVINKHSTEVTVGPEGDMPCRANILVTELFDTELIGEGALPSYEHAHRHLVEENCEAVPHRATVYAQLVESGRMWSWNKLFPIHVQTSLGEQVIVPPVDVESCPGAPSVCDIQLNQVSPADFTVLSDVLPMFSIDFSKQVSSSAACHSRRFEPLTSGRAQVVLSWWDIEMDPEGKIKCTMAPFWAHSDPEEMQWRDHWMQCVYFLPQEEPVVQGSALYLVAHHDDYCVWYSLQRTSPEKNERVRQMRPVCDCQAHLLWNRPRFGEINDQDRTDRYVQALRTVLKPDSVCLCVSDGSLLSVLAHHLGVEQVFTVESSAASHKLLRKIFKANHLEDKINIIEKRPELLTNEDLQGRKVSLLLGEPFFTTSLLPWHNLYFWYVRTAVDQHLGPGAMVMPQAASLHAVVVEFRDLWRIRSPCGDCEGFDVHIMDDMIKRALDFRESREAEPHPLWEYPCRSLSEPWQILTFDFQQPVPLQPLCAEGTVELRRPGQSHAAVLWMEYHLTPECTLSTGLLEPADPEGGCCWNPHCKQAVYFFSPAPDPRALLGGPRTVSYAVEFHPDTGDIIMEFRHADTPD

[2] = target: Histone-lysine N-methyltransferase, H3 lysine-79 specific (Homo sapiens) (UniProt Q8TEK3); assay: Inhibition of N-terminal/C-terminal His/GST-tagged human recombinant DOT1L (1 to 416 residues) at 10 uM using oligo nucleosome as substrate and 3H-SAM as cosubstrate incubated for 60 mins by scintillation counter analysis
Histone-lysine N-methyltransferase, H3 lysine-79 specific (Homo sapiens), sequence (Q8TEK3 whole entry, looked up, the tested form may be a part): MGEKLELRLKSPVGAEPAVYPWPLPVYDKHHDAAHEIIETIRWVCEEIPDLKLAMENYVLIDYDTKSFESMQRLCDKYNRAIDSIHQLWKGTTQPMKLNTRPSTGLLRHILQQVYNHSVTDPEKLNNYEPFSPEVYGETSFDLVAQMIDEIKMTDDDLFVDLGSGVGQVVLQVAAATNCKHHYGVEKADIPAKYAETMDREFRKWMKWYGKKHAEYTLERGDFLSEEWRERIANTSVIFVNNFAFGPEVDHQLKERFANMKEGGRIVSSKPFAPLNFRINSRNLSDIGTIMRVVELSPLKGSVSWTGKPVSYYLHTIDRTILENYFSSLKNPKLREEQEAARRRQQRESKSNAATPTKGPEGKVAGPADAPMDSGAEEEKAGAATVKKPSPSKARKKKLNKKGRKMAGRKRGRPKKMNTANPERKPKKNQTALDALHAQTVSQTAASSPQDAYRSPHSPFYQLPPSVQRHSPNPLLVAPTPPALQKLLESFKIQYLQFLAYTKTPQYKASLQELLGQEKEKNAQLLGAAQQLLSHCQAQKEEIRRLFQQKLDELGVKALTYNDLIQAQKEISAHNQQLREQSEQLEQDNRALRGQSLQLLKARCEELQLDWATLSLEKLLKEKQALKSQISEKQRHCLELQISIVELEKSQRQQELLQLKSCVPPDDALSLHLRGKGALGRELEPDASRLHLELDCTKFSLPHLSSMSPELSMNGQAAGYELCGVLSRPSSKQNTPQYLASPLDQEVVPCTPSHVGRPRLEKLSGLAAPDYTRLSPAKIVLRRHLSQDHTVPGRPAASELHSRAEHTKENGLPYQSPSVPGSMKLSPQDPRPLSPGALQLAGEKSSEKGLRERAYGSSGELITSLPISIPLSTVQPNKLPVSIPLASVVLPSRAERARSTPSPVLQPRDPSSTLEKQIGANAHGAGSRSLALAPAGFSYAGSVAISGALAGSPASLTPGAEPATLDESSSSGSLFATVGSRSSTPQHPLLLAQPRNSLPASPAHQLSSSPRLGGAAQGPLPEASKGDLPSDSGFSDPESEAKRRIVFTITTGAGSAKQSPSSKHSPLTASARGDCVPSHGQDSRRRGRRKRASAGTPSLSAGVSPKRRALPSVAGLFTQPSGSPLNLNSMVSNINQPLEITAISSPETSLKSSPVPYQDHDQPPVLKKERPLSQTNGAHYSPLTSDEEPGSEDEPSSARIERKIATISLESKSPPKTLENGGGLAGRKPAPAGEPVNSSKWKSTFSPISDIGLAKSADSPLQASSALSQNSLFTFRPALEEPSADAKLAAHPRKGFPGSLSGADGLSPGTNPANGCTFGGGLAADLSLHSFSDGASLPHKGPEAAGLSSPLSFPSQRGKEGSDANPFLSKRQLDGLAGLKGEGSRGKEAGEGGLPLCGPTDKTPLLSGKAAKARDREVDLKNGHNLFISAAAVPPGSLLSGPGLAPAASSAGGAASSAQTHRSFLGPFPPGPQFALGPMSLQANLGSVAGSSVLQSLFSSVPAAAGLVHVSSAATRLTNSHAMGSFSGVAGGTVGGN

[3] = target: T1, Protein arginine N-methyltransferase 7 (Homo sapiens); assay: Inhibition of PRMT7 catalysed methylation of HSP70 at R469 residue in HEK293T cells assessed as increase in ratio of abundance of unmethylated over methylated peptides at 10 to 50 uM by UHPLC- MS/MS analysis; type: cell-based; conditions: dose 10-50 µM, time 24-48 hrs, TDE = time-dependent effect
[4] = target: T1, Protein arginine N-methyltransferase 7 (Homo sapiens); assay: Inhibition of PRMT7 catalysed methylation of HNRNPA1 at R194 residue in HEK293T cells assessed as increase in ratio of abundance of unmethylated over methylated peptides at 10 to 50 uM by UHPLC- MS/MS analysis; type: cell-based; conditions: dose 10-50 µM, time 24-48 hrs, TDE = time-dependent effect
[5] = target: T2, Histone-lysine N-methyltransferase SMYD3 (Homo sapiens) (UniProt Q9H7B4); assay: Inhibition of C-terminal His/GST-tagged human recombinant SMYD3 (2 to 428 residues) at higher concentration using 3H-SAM as substrate incubated for 60 mins by scintillation counter analysis
T2 sequence (whole entry): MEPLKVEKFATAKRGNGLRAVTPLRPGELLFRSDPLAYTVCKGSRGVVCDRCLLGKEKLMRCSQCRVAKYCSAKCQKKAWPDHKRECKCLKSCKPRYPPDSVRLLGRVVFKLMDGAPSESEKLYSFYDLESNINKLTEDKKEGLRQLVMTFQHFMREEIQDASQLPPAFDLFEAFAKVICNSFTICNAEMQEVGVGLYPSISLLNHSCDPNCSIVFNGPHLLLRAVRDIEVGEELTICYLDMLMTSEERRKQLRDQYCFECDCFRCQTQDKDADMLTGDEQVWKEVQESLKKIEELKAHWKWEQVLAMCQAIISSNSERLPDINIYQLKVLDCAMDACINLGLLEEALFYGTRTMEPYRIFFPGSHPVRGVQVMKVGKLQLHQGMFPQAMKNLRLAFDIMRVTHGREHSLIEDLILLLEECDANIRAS

[6] = target: Histone-lysine N-methyltransferase SUV39H2 (Homo sapiens) (UniProt Q9H5I1); assay: Inhibition of N-terminal/C-terminal His/GST-tagged human recombinant SUV39H2 (46 to 410 residues) at higher concentration using H3 histone as substrate and 3H-SAM as cosubstrate incubated for 60 mins by scintillation counter analysis
Histone-lysine N-methyltransferase SUV39H2 (Homo sapiens), sequence (Q9H5I1 whole entry, the tested form may be a part): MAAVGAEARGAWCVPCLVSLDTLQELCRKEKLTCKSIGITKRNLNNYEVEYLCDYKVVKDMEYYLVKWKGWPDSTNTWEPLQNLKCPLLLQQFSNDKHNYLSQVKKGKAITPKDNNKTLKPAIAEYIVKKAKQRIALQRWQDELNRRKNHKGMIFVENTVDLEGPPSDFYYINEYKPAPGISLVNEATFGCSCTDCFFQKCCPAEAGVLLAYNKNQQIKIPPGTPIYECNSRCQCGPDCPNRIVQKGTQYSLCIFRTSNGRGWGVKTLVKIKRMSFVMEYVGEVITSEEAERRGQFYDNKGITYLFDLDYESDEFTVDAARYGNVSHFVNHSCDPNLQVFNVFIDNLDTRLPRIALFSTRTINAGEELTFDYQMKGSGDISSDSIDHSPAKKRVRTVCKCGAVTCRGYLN

[7] = target: T1, Protein arginine N-methyltransferase 7 (Homo sapiens); assay: Inhibition of PRMT7 catalysed methylation of HSP70 at R469 residue in HEK293T cells assessed as increase in ratio of abundance of unmethylated over methylated peptides measured after 24 to 48 hrs by UHPLC- MS/MS analysis; type: cell-based; conditions: dose 10-50 µM, time 24-48 hrs
[8] = target: T3, Histone-lysine N-methyltransferase SETD7 (Homo sapiens) (UniProt Q8WTS6); assay: Inhibition of N-terminal/C-terminal His/GST-tagged human recombinant SET7/9 (2 to 366 residues) at higher concentration using core histone as substrate and 3H-SAM as cosubstrate incubated for 60 mins by scintillation counter analysis
T3 sequence (whole entry): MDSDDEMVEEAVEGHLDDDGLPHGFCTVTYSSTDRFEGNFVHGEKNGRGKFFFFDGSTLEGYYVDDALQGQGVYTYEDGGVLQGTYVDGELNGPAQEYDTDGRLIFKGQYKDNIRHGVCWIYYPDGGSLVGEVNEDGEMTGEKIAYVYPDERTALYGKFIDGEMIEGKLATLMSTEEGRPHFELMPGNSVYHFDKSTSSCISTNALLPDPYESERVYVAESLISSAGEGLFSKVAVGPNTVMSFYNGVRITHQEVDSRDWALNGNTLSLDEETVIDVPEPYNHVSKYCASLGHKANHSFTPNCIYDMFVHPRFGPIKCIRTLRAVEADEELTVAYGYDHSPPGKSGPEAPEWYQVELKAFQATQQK

[9] = target: T1, Protein arginine N-methyltransferase 7 (Homo sapiens); assay: Inhibition of PRMT7 catalysed methylation of HNRNPA1 at R194 residue in HEK293T cells assessed as increase in ratio of abundance of unmethylated over methylated peptides measured after 24 to 48 hrs by UHPLC- MS/MS analysis; type: cell-based; conditions: dose 10-50 µM, time 24-48 hrs

inhibition (Homo sapiens): inactive
inhibition [1]: Active
inhibition [2]: Active
inhibition [3]: Tde
inhibition [4]: Tde
inhibition [5]: inactive
inhibition [6]: inactive
inhibition [7]: Dose-Dependent Effect
inhibition [8]: inactive
inhibition [9]: Dose-Dependent Effect
SMILES: COC(=O)c1cc(O)c2cc(NC(=O)NCCCNC(=N)NC[C@H]3O[C@@H](n4cnc5c(N)ncnc54)[C@H](O)[C@@H]3O)cc(C(F)(F)F)c2c1

Reference: ChEMBL document CHEMBL5365419, “Identification of a Protein Arginine Methyltransferase 7 (PRMT7)/Protein Arginine Methyltransferase 9 (PRMT9) Inhibitor” (J Med Chem, 2023)
